Measured values from patent US5789589A, “Guanine analog phosphates” (Drug Innovation & Design, Inc., priority 1996, dated 1998).

What was measured:
TK^+ HSV 1 = assay: In vitro antiviral activity (CPE) against TK^+ HSV-1 (BWVL#10186) in Vero cells; format: cell-based, Herpes type 1 virus (HSV-1), human clinical isolate; settings: for EC50: Human alphaherpesvirus 1, TK^+ HSV 1, Vero cells, CPE, about 72 hours, read-out: ED50 (the source's name); for Activity compared with acyclovir (in words): in vitro, TK^+ HSV-1
Description: (§1) The following test were carried out essentially as described by Sidwell and Huffman (Sidwell, et al., App. Microbiol., 22:797-801 (1971)), and was used in the reports on the in vitro antiviral activity of ribavirin (Sidwell, et al. Science, 177:705-706 (1972); Huffman, et al., Antimicrob. Ag. Chemother., 3:235-241 (1973)).
(§2) Herpes type 1 virus (HSV-1), BWVL#10186, is a thymidine kinase positive (TK^+) human clinical isolate provided by Dr. M. Nixon Ellis, Burroughs Wellcome Co. (Research Triangle Park, N.C.). The BWVL#10168 strain of HSV-1 is a TK- patient isolate (resistant partner to 10186) that was also provided by Dr. Ellis. Both strains were prepared in Vero cells, ampuled, and frozen at -80° C. Antiviral testing was performed in Vero cells.
(§3) Vero (continuously passaged African green monkey kidney) was obtained from the American Type Culture Collection (ATCC) (Rockville, Md.). Growth medium was Medium 199, 5% FBS and 0.1% NaHCO3. Test medium was Eagle's minimum essential medium with non-essential amino acids (MEM), with 2% FBS, 0.18% NaHCO3 and 50 μg gentamicin/ml. The growth medium contained no antibiotics.
(§4) Compounds were weighed and a sufficient amount added to DMSO (American Type Culture Collection, Rockville, Md.) to prepare a solution at 20 mg/ml.
(§5) Cells were seeded to 96-well flat-bottomed tissue culture plates (Corning Glass Works, Corning, N.Y.), 0.2 ml/well, at the proper cell concentration, and incubated overnight at 37° C. in order to establish cell monolayers. The growth medium was decanted and the various dilutions of test compound were added to each well (4 wells/dilution, 0.1 ml/well). Compound diluent medium was added to cell and virus control wells (0.1 ml/well). Virus, diluted in test medium, was added to compound test wells (3 wells/dilution of compound) and to virus control wells at 0.1 ml/well. Virus was added approximately 5 minutes after compound. Test medium without virus was added to all toxicity control wells (1 well/dilution of each test compound) and to cell control wells at 0.1 ml/well. The plates were sealed with plastic wrap (SARAN™) and incubated at 37° C. in a humidified incubator with 5% CO2, 95% air atmosphere until virus control had adequate cytopathic effect (CPE) readings. This was usually achieved after 72 hours. Cells were then examined microscopically for CPE, this being scored from 0 (normal cells) to 4 (maximal, 100%, CPE). The cells in the toxicity control wells were observed microscopically for morphologic changes attributed to cytotoxicity. This cytotoxicity was graded as: T (assigned 100% toxicity), PVH (assigned 80% cytotoxicity), PH (assigned 60% cytotoxicity), P (assigned 40% cytotoxicity), PSI (assigned 20% cytotoxicity), and 0 (normal cells). The 50% effective dose (ED50) and 50% cytotoxic dose (CD50) were calculated by regression analysis of the virus CPE data and the toxicity control data, respectively.
(§6) A known active substance, acyclovir, was run in the same manner as above for each batch of compounds tested.

HSV-1 = assay: Dermal HSV-1 infection in guinea pigs, topical treatment; format: in vivo, Female Hartley outbred guinea pigs; settings: for Comparison with U.S. ZOVIRAX in all three efficacy parameters: Mann-Whitney test, p=0.0008, 0.0008, 0.001; for Reduction in lesion number (in words): guinea pigs with dermal HSV-1 lesions, compared to vehicle; for Lesion Number, % Diff vs placebo / Lesion virus titer, % Diff vs placebo / Total Lesion Area, % Diff vs placebo: positive value = reduction vs vehicle, p=0.012; for Lesion virus titer, mean: skin taken Day 4, plaque formation in VERO cells; for Lesion Number, mean: prodrug cream (1.2% Prodrug 1 or 1.87% Prodrug 2) 2x/day on Days 1, 2 and 3
Description: The formulation for Prodrugs 1 and 2 contained 5% EL-620 EMULPHOR (polyoxyethylated castor oil) (Rhone Poluenc), 5% CARBOPOL (Carboxypolymethylene, sodium salt) (B.F. Goodrich), 10% ethanol and 1.2% by weight Prodrug 1 (or 1.87% by weight Prodrug 2). The balance of the formulation consisted of water.
EL-620 EMULPHOR and water were mixed and ultrasonicated to give a clear emulsion, to which the ethanol was added. The prodrug was then added, and the mixture was ultrasonicated to give an opalescent emulsion. The sodium carbopol was then added to the emulsion and mixed until to homogeneity.
The placebo was prepared identically to the pharmaceutical compositions except that the prodrugs were omitted.
Female Hartley outbred guinea pigs, 400 to 450 grams, were obtained from Charles River Breeding Labs, Wilmington, Mass. Animals were anesthetized with 25 mg/kg ketamine and 5 mg/kg xylazine SQ. Hair on the dorsum from the shoulders to the rump was removed with electric clippers followed by two 5-10 minute applications of a chemical depilatory. A grid of four areas was demarcated with a pen on both sides of the spine at levels corresponding to mid back and rump.
Undiluted HSV-1 virus stock (0.035 ml) was applied to each different area and introduced through the skin at well-spaced sites at ten activations of a six-pronged spring-loaded vaccination instrument (Sterneedle, Pan Ray Division, Ormont Drug, Englewood, N.J.). The day of inoculation is Day 0. Approximately 250 mg of drug or placebo was applied to the areas according to the dosing regimen on Days 1, 2 and 3. Eight guinea pigs were used during the experiments allowing eight comparisons between each drug and its placebo. 5% ZOVIRAX ointment U.S.A. (Acyclovir) applied 4×/day was used as a control.
On Day 4 regrown hair on the dorsum of the guinea pigs was removed with one 3-4 minute application of a chemical depilatory. HSV lesions were counted and Polaroid pictures of the animals' backs were taken. The animals were sacrificed using CO2 gas and the full thickness skin of the back was removed by dissection. The square of the skin from each of the four treatment areas was placed into 15 mls of tissue culture medium with 2% FBS in an ice bath. The samples were then homogenized in a stomacher Lab Blender 80 (Tekmar Co.). Debris was pelleted by centrifugation and the supernatants collected and frozen at -70 C. until assay for infectivity by plaque formation in VERO cells.
The mean and standard deviation for number of lesions, total lesion area and lesion virus titer were computed for each treatment pair. Paired data (drug/vehicle) were evaluated by the Wilcoxon signed-rank test using percent differences between log10 derivatives of mean lesions severity at drug-treated sites compared to the vehicle-treated sites.

pig liver esterase = assay: Incubation with pig liver esterase in phosphate buffered D2O, NMR; format: in vitro ADME
in vitro = format: cell-based; settings: african green monkey, vero cells
Description: as §3, §4, §5

TK^- HSV 1 = assay: In vitro antiviral activity (CPE) against TK^- acyclovir resistant HSV-1 (BWVL#10168) in Vero cells; format: cell-based, Herpes type 1 virus (HSV-1), patient isolate; settings: for EC50: Human alphaherpesvirus 1, Vero, 72 h, read-out: ED50; for Activity relative to acyclovir (fold more active): in vitro, acyclovir resistant (TK^-) HSV-1
Description: as §1, §2, §3, §4, §5, §6

herpes simplex labialis = settings: cited from earlier work
Herpes Simplex Virus-1 = assay: Healing of vaginal lesions in mice caused by Herpes Simplex Virus-1; format: in vivo; settings: topical application
[1] = prodrug cream 2x/day on Days 1, 2 and 3, assessed Day 4, n=8
[2] = prodrug cream 2x/day on Days 1, 2 and 3, n=8
[3] = prodrug cream 2x/day on Days 1, 2 and 3

| Compound | EC50 (TK^+ HSV 1) [µM] | Activity compared with acyclovir (in words) (TK^+ HSV 1) | Comparison with U.S. ZOVIRAX in all three efficacy parameters (HSV-1) | Reduction in lesion number (in words) (HSV-1) | Lesion Number, median (HSV-1; [1]) | Total Lesion Area, mean (HSV-1; [1]) [mm2] | Total Lesion Area, median (HSV-1; [1]) [mm2] | Lesion virus titer, median (HSV-1; [2]) | Lesion Number, % Diff vs placebo (HSV-1; [3]) [%] | Lesion virus titer, % Diff vs placebo (HSV-1; [3]) [%] | Total Lesion Area, % Diff vs placebo (HSV-1; [3]) [%] | Lesion virus titer, mean (HSV-1; [2]) | Lesion Number, mean (HSV-1; assessed Day 4, n=8) | Degradation by pig liver esterase (pig liver esterase) | CC50 (in vitro) [µg/mL] | EC50 (TK^- HSV 1) [µM] | Activity relative to acyclovir (fold more active) (TK^- HSV 1) | Effectiveness of oral administration in treatment of cold sores (herpes simplex labialis; oral) | Response of cold sores to topical treatment (herpes simplex labialis; topical) | Healing of vaginal lesions (Herpes Simplex Virus-1) |
| --- | --- | --- | --- | --- | --- | --- | --- | --- | --- | --- | --- | --- | --- | --- | --- | --- | --- | --- | --- | --- |
| COC(=O)CC(OP(=O)(OCCOCn1cnc2c(=O)[nH]c(N)nc21)OC(CC(=O)OC)c1ccc(OC(C)=O)cc1)c1ccc(OC(C)=O)cc1 (stereo not drawn) [Prodrug 1] | 4.6 | same order of magnitude as acyclovir | worked significantly better than U.S. ZOVIRAX in all three of the efficacy parameters measured | dramatic reduction in lesion number | 32.0 | 106 | 107 | 3.17 log (pfu/ml) | 45 | 96 | 59 | 3.07 log (pfu/ml) | 32 | degraded to acyclovir monophosphate and p-hydroxycinnamic | > 100 | 17 | about 2 × |  |  |  |
| COC(=O)CC(O[PH](=O)OCCOCn1cnc2c(=O)[nH]c(N)nc21)c1ccc(OC(=O)C(C)(C)C)cc1 (stereo not drawn) [Prodrug 3] | 5.5 | same order of magnitude as acyclovir |  |  |  |  |  |  |  |  |  |  |  |  | > 100 | 37 |  |  |  |  |
| Nc1nc2c(ncn2COCCO)c(=O)[nH]1 [Acyclovir, acyclovir, reference compound] | 1.4 |  |  |  |  |  |  |  |  |  |  |  |  |  | > 100 | 35 |  | only partially effective | do not respond to the topical treatment |  |
| COC(=O)CC(OP(=O)(OCCOCn1cnc2c(=O)[nH]c(N)nc21)OC(CC(=O)OC)c1ccc(OC(=O)C(C)(C)C)cc1)c1ccc(OC(=O)C(C)(C)C)cc1 (stereo not drawn) [Prodrug 2] | 6.3 | same order of magnitude as acyclovir | worked significantly better than U.S. ZOVIRAX in all three of the efficacy parameters measured | dramatic reduction in lesion number | 36.0 |  | 109 | 3.12 log (pfu/ml) | 35 | 97 | 57 | 2.87 log (pfu/ml) | 37 |  | > 100 | 7.5 | about 5 × |  |  | effective in promoting the healing of vaginal lesions in mice |
